Each structure is given as a SMILES string.

The target of this experiment is T1, human skin chymase (Homo sapiens, UniProt P23946).
T1 construct: using human skin chymase (Cortex Biochem); purchased Cortex Biochem
T1 sequence (P23946 22-247): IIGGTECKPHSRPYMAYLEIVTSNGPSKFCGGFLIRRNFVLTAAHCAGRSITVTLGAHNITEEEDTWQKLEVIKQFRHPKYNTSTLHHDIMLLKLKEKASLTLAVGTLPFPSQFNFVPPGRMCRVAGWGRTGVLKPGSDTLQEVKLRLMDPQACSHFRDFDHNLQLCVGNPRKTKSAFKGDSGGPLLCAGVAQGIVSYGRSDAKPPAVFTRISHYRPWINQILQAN
Briefly: Enzyme-catalyzed hydrolysis assay (chymase inhibition). It counts as biochemical. The following applies: 10 nM enzyme, 0.7 mM Suc-Ala-Ala-Pro-Phe-pNa, pH 8.0, 37° C., 30 minutes. As for the experimental part: Enzyme-catalyzed hydrolysis rates were measured spectro-photometrically using human skin chymase (Cortex Biochem), a chromogenic substrate (Suc-Ala-Ala-Pro-Phe-pNa) (Bachem) in aqueous buffer (450 mM Tris, 1800 mM NaCl, pH 8.0), and a microplate reader (Molecular Devices). […] Percent inhibition was calculated by comparing the initial reaction slopes of the samples without inhibitor to those with inhibitor. IC50 values were determined using a four parameter fit logistics model. The term “NT” indicates a compound that was not tested.
The term IC50 denotes the point on the concentration scale where inhibition reaches its midpoint. High values mean weaker potency in that assay, low ones greater potency in that assay. `CP(=O)(O)C(C(=O)N/C=C/c1ccccc1Br)c1csc2ccc(Cl)cc12` (stereo not drawn) [Cpd 164] registered a half-maximal inhibitory concentration (IC50) of 0.1 ± 0.02 µM. With `O=C(Nc1cc2ccccc2cc1C(=O)N1CCC(c2nc3ccccc3s2)CC1)C(c1cccc2ccccc12)P(=O)(O)O` (stereo not drawn) [Cpd 113] the figure was 4.8 ± 1.69 µM; with `O=C(Nc1ccc2ncsc2c1)C(c1csc2ccc(Cl)cc12)P(=O)(O)O` (stereo not drawn) [Cpd 30], 0.17 ± 0.01 µM.

`CP(=O)(O)C(C(=O)N/C=C/c1c(F)cccc1F)c1csc2ccc(Cl)cc12` (stereo not drawn) [Cpd 156]: the 50% inhibitory concentration (IC50) is 0.036 ± 0.01 µM. `O=C(Nc1cc2ccccc2cc1C(=O)N1CCC(c2ccccc2)C1)C(c1cccc2ccccc12)P(=O)(O)O` (stereo not drawn) [Cpd 87] yielded an IC50 of 2.04 µM. Take `CP(=O)(O)C(C(=O)N/C=C/c1ccccn1)c1csc2ccc(Cl)cc12` (stereo not drawn) [Cpd 150]: the IC50 came out at 0.091 ± 0.02 µM. The molecule `CP(=O)(O)C(C(=O)Nc1cc2ccccc2o1)c1csc2ccc(Cl)cc12` (stereo not drawn) [Cpd 146] registered a 50% inhibitory concentration (IC50) of 0.11 µM. Molecule `O=C(Nc1ccc2ccccc2c1)C(c1cc2ccccc2s1)P(=O)(O)O` (stereo not drawn) [Cpd 140, [(Benzo[b]thiophen-2-yl)-(naphthalen-2-ylcarbamoyl)-methyl]-phosphonic acid] came in with an IC50 of 9.2 ± 0.73 µM. Consider `O=C(Nc1ccc2ccccc2c1OCC(=O)N1CCC(c2ccccc2)CC1)C(c1cccc2ccccc12)P(=O)(O)O` (stereo not drawn) [Cpd 114, (Naphthalen-1-yl-{1-[2-oxo-2-(4-phenyl-piperidin-1-yl)-ethoxy]-naphthalen-2-ylcarbamoyl}-5 methyl)-phosphonic acid], for which it took 4.9 ± 1.34 µM to reach half-maximal inhibition (IC50). On to `CN(CCc1ccccc1)Cc1cc2ccccc2cc1NC(=O)C(c1cccc2ccccc12)P(=O)(O)O` (stereo not drawn) [Cpd 126], for which 7 µM corresponded to half-maximal inhibition (IC50). `CP(=O)(O)C(C(=O)N/C=C/c1cccc(F)c1)c1csc2ccc(Cl)cc12` (stereo not drawn) [Cpd 15] yielded a concentration for half-maximal inhibition (IC50) of 0.052 ± 0.015 µM.

The molecule `O=C(C=Cc1cc2ccccc2cc1NC(=O)C(c1cccc2ccccc12)P(=O)(O)O)NCc1ccccc1` (stereo not drawn) [Cpd 109, {[3-(2-Benzylcarbamoyl-vinyl)-naphthalen-2-ylcarbamoyl]-naphthalen-1-yl-methyl}-phosphonic acid] came in with a concentration for half-maximal inhibition (IC50) of 4.4 µM. In the case of `O=C(O)C(C(=O)Nc1ccc2ccccc2c1)c1csc2ccc(Cl)cc12` (stereo not drawn) [Cpd 84, [(5-Chloro-benzo[b]thiophen-3-yl)-(naphthalen-2-ylcarbamoyl)-methyl]-carboxylic acid], half-maximal inhibition (IC50) was put at 1.75 ± 0.285 µM. `O=C(Nc1ccc2ccccc2c1)C(c1cn(CC2CC2)c2ccccc12)P(=O)(O)O` (stereo not drawn) [Cpd 62] displayed an IC50 of 0.82 ± 0.5 µM.

`O=C(Nc1ccc2ccccc2c1)C(c1cn(CC=Cc2ccccc2)c2ccccc12)P(=O)(O)O` (stereo not drawn) [Cpd 27]: it took 0.13 ± 0.02 µM to reach half-maximal inhibition (IC50).

`O=C(Nc1ccc2ccccc2c1)C(c1csc2ccc(Br)cc12)P(=O)(O)O` (stereo not drawn) [Cpd 23, [(5-Bromo-benzo[b]thiophen-3-yl)-(naphthalen-2-ylcarbamoyl)-methyl]-phosphonic acid]: the midpoint of inhibition, the IC50, lay at 0.1 ± 0.03 µM. As for `O=C(Nc1cc2ccccc2s1)C(c1cccc2ccccc12)P(=O)(O)O` (stereo not drawn) [Cpd 64], inhibition was half-maximal at 0.83 ± 0.08 µM (IC50). To `CP(=O)(O)C(C(=O)NC=Cc1ccc(C#N)cc1)c1csc2ccc(Cl)cc12` (stereo not drawn) [Cpd 157] belongs 11 ± 1.2 µM; to `O=C(Nc1cc2ccccc2cc1C(=O)N1CCCC1c1ccccc1)C(c1cccc2ccccc12)P(=O)(O)O` (stereo not drawn) [Cpd 131], 7.68 µM. With `CC(C)OC(=O)c1cc2ccccc2cc1NC(=O)C(c1cccc2ccccc12)P(=O)(O)O` (stereo not drawn) [Cpd 139] the figure was 8.8 µM; with `CP(=O)(O)C(C(=O)N/C=C/c1ccccc1Cl)c1csc2ccc(Cl)cc12` (stereo not drawn) [Cpd 160], 0.065 ± 0.02 µM; with `CP(=O)(O)C(C(=O)NC=Cc1ccccc1N)c1csc2ccc(Cl)cc12` (stereo not drawn) [Cpd 151, [[2-(2-Amino-phenyl)-vinylcarbamoyl]-(5-chloro-benzo[b]thiophen-3-yl)-methyl]-methyl-phosphinic acid], 0.4 ± 0.12 µM. Regarding `O=C(NCc1ccccc1)c1cc2ccccc2cc1NC(=O)C(c1cccc2ccccc12)P(=O)(O)O` (stereo not drawn) [Cpd 119, [(3-Benzylcarbamoyl-naphthalen-2-ylcarbamoyl)-naphthalen-1-yl-methyl]-phosphonic acid], the IC50 is 5.8 µM.

As for `O=C(NC=Cc1cc(F)cc(F)c1)C(c1csc2ccc(Cl)cc12)P(=O)(O)O` (stereo not drawn) [Cpd 199], the midpoint of inhibition, the IC50, lay at 0.0018 µM. In turn, `COc1ccc(CCN(C)C(=O)c2cc3ccccc3cc2NC(=O)C(c2cccc3ccccc23)P(=O)(O)O)cc1OC` (stereo not drawn) [Cpd 115] displayed an IC50 of 5.36 µM. The molecule `CP(=O)(O)C(C(=O)N/C=C/c1cccc(OC(F)(F)F)c1)c1csc2ccc(Cl)cc12` (stereo not drawn) [Cpd 153] came in with an IC50 of 0.06 ± 0.01 µM.

Molecule `CP(=O)(O)C(C(=O)N/C=C/c1cccc(F)c1F)c1csc2ccc(Cl)cc12` (stereo not drawn) [Cpd 163] had an IC50 of 0.017 µM. `CP(=O)(O)C(C(=O)N/C=C/c1ccccc1O)c1csc2ccc(Cl)cc12` (stereo not drawn) [Cpd 149, {(5-Chloro-benzo[b]thiophen-3-yl)-[2-(2-hydroxy-phenyl)-vinylcarbamoyl]-methyl}-methyl-phosphinic acid] showed a concentration for half-maximal inhibition (IC50) of 0.043 µM. In turn, `CP(=O)(O)C(C(=O)NC=Cc1cccc(C(F)(F)F)c1)c1csc2ccc(Cl)cc12` (stereo not drawn) [Cpd 152] yielded an IC50 of 0.13 ± 0.03 µM. Take `Nc1ccc(/C=C/NC(=O)C(c2csc3ccc(Cl)cc23)P(=O)(O)O)cc1` (stereo not drawn) [Cpd 12]: the half-inhibitory concentration (IC50) worked out at 0.038 ± 0.013 µM. For `O=C(Nc1cc2ccccc2cn1)C(c1cccc2ccccc12)P(=O)(O)O` (stereo not drawn) [Cpd 137], the IC50 is 8.66 µM. Turning to `Cc1ccc2scc(C(C(=O)Nc3ccc4ccccc4c3)P(=O)(O)O)c2c1` (stereo not drawn) [Cpd 5], the IC50 was found to be 0.019 ± 0.005 µM. `NS(=O)(=O)OCC(C(=O)Nc1ccc2ccccc2c1)c1csc2ccc(Cl)cc12` (stereo not drawn) [Cpd 120, Sulfamic acid 2-(5-chloro-benzo[b]thiophen-3-yl)-2-(naphthalen-2-ylcarbamoyl)-ethyl ester] had a concentration for half-maximal inhibition (IC50) of 5.86 ± 1.08 µM. The molecule `O=C(Nc1ccc2cc(Br)ccc2c1)C(c1csc2ccc(Cl)cc12)P(=O)(O)O` (stereo not drawn) [Cpd 67] showed a half-maximal inhibitory concentration (IC50) of 0.92 ± 0.25 µM. The molecule `COC(=O)COc1cc2ccccc2cc1NC(=O)C(c1cccc2ccccc12)P(=O)(O)O` (stereo not drawn) [Cpd 123] displayed a half-inhibitory concentration (IC50) of 6.6 µM. Take `O=C(Nc1cnc2ccccc2c1)C(c1cccc2ccccc12)P(=O)(O)O` (stereo not drawn) [Cpd 57]: the IC50 came out at 0.609 µM. For the molecule `COc1ccc(C2CCN(C(=O)c3sc4ccccc4c3C(C(=O)Nc3ccc4ccccc4c3)P(C)(=O)O)CC2)cc1` (stereo not drawn) [Cpd 35], 0.235 ± 0.045 µM corresponded to half-maximal inhibition (IC50). Regarding `CC1CCCC(NCc2cc3ccccc3cc2NC(=O)C(c2cccc3ccccc23)P(=O)(O)O)C1` (stereo not drawn) [Cpd 90], 2.15 µM corresponded to half-maximal inhibition (IC50).

The molecule `O=C(Nc1ccc2ccccc2c1)C(c1csc2ccc(F)cc12)P(=O)(O)O` (stereo not drawn) [Cpd 10] came in with an IC50 of 0.029 ± 0.01 µM. `O=C(N/C=C/c1cccnc1)C(c1csc2ccc(Cl)cc12)P(=O)(O)O` (stereo not drawn) [Cpd 25] displayed a half-maximal inhibitory concentration (IC50) of 0.109 ± 0.03 µM. Turning to `O=C(Nc1ccc2c(c1)Cc1ccccc1-2)C(c1cccc2ccccc12)P(=O)(O)O` (stereo not drawn) [Cpd 106], the 50% inhibitory concentration (IC50) came out at 4.3 µM. `Cn1cc(C(C(=O)Nc2ccc3ccccc3c2)P(=O)(O)O)c2cc(F)ccc21` (stereo not drawn) [Cpd 11] had an IC50 of 0.037 ± 0.01 µM. To `CP(=O)(O)C(C(=O)NC=Cc1ccccc1[N+](=O)[O-])c1csc2ccc(Cl)cc12` (stereo not drawn) [Cpd 147] belongs 1.44 ± 0.48 µM; to `O=C(N/C=C/c1ccccc1)C(c1cccc2ccccc12)P(=O)(O)O` (stereo not drawn) [Cpd 37], 0.25 ± 0.12 µM; to `Cn1cc(C(C(=O)Nc2ccc3ccccc3c2)P(=O)(O)O)c2cc(C(=O)O)ccc21` (stereo not drawn) [Cpd 56, 1-Methyl-3-[(naphthalen-2-ylcarbamoyl)-phosphono-methyl]-1H-indole-5-carboxylic acid], 0.606 ± 0.13 µM.

These data come from patent publication US7459444B2, “Inhibitors of chymase” (Janssen Pharmaceutica N.V., priority 2004, dated 2008).
